2 molecules from patent US20180362543A1, “HIV REPLICATION INHIBITOR” (Shionogi & Co., Ltd., priority 2013, published 2018) can be followed below.

One series deals with HIV (HTLV-III B strain). Kind of series: HIV replication inhibition assay (MTT, MT-4 cells). The class given is cell-based. Conditions: 4 days culture, concentration at which cell cytotoxicity by virus is inhibited 50%. Put shortly: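 MT-4 cells (2.5×10^4/well) infected with HTLV-III B stock (60 pfu) in presence of compound, cultured four days at 37 °C. Viability by MTT reduction, formazan read at 560 and 690 nm. EC50 is concentration inhibiting virus-induced cytotoxicity by 50%.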

The target of series [1] is T1, human ether-a-go-go related gene (hERG) channel (Homo sapiens, UniProt Q12809).
T1 construct: expressed in transfected cells; host or cells: HEK293
T1 sequence (Q12809 whole entry): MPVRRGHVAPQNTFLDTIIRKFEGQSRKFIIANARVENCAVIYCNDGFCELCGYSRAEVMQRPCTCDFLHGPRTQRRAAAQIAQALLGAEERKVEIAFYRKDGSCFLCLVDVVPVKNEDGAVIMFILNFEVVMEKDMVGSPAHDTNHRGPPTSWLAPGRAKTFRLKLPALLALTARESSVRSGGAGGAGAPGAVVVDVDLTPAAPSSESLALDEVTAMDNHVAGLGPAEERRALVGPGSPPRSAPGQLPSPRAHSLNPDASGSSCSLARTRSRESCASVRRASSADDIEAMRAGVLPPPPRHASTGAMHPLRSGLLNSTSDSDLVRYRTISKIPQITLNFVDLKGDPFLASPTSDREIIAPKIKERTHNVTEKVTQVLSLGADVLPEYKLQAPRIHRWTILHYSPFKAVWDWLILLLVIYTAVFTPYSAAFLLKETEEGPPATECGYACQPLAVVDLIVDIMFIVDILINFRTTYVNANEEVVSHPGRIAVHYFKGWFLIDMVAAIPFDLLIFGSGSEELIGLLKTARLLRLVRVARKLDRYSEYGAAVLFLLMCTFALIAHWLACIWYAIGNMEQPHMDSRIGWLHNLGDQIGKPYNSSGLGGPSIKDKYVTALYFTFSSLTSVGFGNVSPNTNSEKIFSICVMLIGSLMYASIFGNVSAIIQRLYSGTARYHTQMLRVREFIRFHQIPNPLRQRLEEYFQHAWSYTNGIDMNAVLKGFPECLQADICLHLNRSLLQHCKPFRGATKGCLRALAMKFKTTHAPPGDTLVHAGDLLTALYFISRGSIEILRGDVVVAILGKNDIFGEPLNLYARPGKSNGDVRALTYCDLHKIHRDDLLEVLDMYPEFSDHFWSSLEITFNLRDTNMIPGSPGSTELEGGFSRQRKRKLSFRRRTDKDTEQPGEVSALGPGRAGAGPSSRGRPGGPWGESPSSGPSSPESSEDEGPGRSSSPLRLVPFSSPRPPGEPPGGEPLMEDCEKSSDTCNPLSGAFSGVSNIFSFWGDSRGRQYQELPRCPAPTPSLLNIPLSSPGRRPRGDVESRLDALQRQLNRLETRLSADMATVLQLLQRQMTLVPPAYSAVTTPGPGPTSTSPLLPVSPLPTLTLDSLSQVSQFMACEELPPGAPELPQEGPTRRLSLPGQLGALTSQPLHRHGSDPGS
Kind of series: hERG test (whole cell patch clamp, IKr). The format is cell-based. The note with it: HEK293 cells expressing hERG channel, concentration not given. From the text: For the purpose of assessing risk of an electrocardiogram QT interval prolongation, effects on delayed rectifier K+ current (IKr), which plays an important role in the ventricular repolarization process of the compound of the present invention, was studied using HEK293 cells expressing human ether-a-go-go related gene (hERG) channel.
After a cell was retained at a membrane potential of −80 mV by whole cell patch clamp method using an automated patch clamp system (PatchXpress 7000A, Axon Instruments Inc.), IKr induced by depolarization pulse stimulation at +40 mV for 2 seconds and, further, repolarization pulse stimulation at −50 mV for 2 seconds was recorded. […] From the recording IKr, an absolute value of the tail peak current was measured based on the current value at the resting membrane potential using an analysis software (DataXpress ver. 1, Molecular Devices Corporation). Further, the inhibition relative to the tail peak current before application of the test substance was calculated, and compared with the vehicle-applied group (0.1% dimethyl sulfoxide solution) to assess influence of the test substance on IKr.

The next series deals with T2, CYP1A2 (Homo sapiens, UniProt P05177).
T2 construct: enzyme, pooled human hepatic microsome 0.2 mg protein/mL; from tissue; host or cells: pooled human liver microsomes
T2 sequence (P05177 1-516): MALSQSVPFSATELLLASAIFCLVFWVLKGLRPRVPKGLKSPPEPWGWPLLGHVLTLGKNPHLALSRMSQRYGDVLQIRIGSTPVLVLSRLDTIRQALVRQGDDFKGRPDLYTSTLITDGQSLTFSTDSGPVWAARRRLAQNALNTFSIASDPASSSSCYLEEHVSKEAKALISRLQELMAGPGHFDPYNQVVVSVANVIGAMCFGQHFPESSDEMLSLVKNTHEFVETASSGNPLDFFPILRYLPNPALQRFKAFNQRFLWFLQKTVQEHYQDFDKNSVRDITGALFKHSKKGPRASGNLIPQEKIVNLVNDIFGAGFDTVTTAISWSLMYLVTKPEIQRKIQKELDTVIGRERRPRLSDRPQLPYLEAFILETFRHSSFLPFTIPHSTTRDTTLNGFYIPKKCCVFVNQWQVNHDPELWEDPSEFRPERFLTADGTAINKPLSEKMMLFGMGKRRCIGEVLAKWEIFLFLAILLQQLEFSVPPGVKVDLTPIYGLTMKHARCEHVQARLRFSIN
Kind of series: CYP inhibition assay, CYP1A2 (7-ethoxyresorufin O-deethylation). The class given is in vitro ADME. Conditions: pooled human hepatic microsome, 15 minutes, 37° C. The procedure:
(§1) Using commercially available pooled human hepatic microsome, and employing, as markers, 7-ethoxyresorufin O-deethylation (CYP1A2), tolbutamide methyl-hydroxylation (CYP2C9), mephenytoin 4′-hydroxylation (CYP2C19), dextromethorphan O-demethylation (CYP2D6), and terfenedine hydroxylation (CYP3A4) as typical substrate metabolism reactions of human main five CYP enzyme forms (CYP1A2, 2C9, 2C19, 2D6, 3A4), an inhibitory degree of each metabolite production amount by a test compound was assessed. […]
(§2) Each five kinds of substrates, human hepatic microsome, and a test drug in 50 mmol/L Hepes buffer as a reaction solution was added to a 96-well plate as the composition as described above, NADPH, as a cofactor was added to initiate metabolism reactions as markers and, after the incubation at 37° C. for 15 minutes, a methanol/acetonitrile=1/1 (v/v) solution was added to stop the reaction. After the centrifugation at 3000 rpm for 15 minutes, resorufin (CYP1A2 metabolite) in the supernatant was quantified by a fluorescent multilabel counter and tolbutamide hydroxide (CYP2C9 metabolite), mephenytoin 4′ hydroxide (CYP2C19 metabolite), dextrorphan (CYP2D6 metabolite), and terfenadine alcohol (CYP3A4 metabolite) were quantified by LC/MS/MS. […]

The format of series [2] is in vitro ADME. Conditions: 0 h.
Another series addresses T3, CYP2C19 (Homo sapiens, UniProt P33261).
T3 construct: enzyme, pooled human hepatic microsome 0.2 mg protein/mL; from tissue; host or cells: pooled human liver microsomes
Kind of series: CYP inhibition assay, CYP2C19 (mephenytoin 4'-hydroxylation). The note with it: pooled human hepatic microsome, 15 minutes, 37° C. The format is in vitro ADME. The protocol: as §1, §2

Series [3] is described as follows: Solubility test (1% DMSO, artificial intestinal juice pH 6.8). The format is physicochemical. Conditions: pH 6.8, 1% DMSO, 16 hours at 25° C. The protocol:
The solubility of each compound was determined under 1% DMSO addition conditions. A 10 mmol/L solution of the compound was prepared with DMSO, and 6 μL of the solution was added to 594 μL of an artificial intestinal juice (:water and a 118 mL solution of 0.2 mol/L NaOH reagent are added to 250 mL of 0.2 mol/L potassium dihydrogen phosphate reagent to reach 1000 mL) with a pH of 6.8. The mixture is left standing for 16 hours at 25° C., and the mixture is vacuum-filtered. The filtrate is two-fold diluted with methanol/water=1/1 (v/v), and the compound concentration in the filtrate is measured with HPLC or LC/MS/MS by the absolute calibration method.

The next series deals with T4, CYP3A4 (Homo sapiens, UniProt P08684).
T4 construct: enzyme, pooled human hepatic microsome 0.2 mg protein/mL; from tissue; host or cells: pooled human liver microsomes
T4 sequence (P08684 whole entry): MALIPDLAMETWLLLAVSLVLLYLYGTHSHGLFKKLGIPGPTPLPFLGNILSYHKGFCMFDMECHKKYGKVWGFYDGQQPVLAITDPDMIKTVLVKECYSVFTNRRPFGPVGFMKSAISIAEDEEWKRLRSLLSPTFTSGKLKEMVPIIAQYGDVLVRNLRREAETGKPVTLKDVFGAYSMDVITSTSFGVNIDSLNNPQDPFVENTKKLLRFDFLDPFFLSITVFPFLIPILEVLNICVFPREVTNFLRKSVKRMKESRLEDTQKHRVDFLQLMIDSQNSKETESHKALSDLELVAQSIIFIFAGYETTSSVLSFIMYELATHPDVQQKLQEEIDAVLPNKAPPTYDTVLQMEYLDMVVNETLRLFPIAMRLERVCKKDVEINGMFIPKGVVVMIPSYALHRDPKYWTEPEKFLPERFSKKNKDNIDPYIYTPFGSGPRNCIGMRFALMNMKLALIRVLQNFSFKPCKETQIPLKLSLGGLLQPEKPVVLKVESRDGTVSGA
Kind of series: CYP inhibition assay, CYP3A4 (terfenedine hydroxylation). The class given is in vitro ADME. The note with it: pooled human hepatic microsome, 15 minutes, 37° C. The procedure:
as §1, §2

A further series concerns the target T5, CYP2D6 (Homo sapiens, UniProt P10635).
T5 construct: enzyme, pooled human hepatic microsome 0.2 mg protein/mL; from tissue; host or cells: pooled human liver microsomes
Put plainly: CYP inhibition assay, CYP2D6 (dextromethorphan O-demethylation). The format is in vitro ADME. Conditions: pooled human hepatic microsome, 15 minutes, 37° C. The procedure: as §1, §2

In series [4] the test system is Salmonella typhimurium TA98 strain, TA100 strain. Conditions: Salmonella typhimurium TA98 and TA100, with and without metabolism activating condition. The procedure:
The mutagenicity of the compound of the present invention was assayed.
20 μL of freezing-stored rat typhoid bacillus (Salmonella typhimurium TA98 strain, TA100 strain) was inoculated on 10 mL of a liquid nutrient medium (2.5% Oxoid nutrient broth No. 2), and this was cultured before shaking at 37° C. for 10 hours. 9 mL of a bacterial solution of the TA98 strain was centrifuged (2000×g, 10 minutes) to remove a culturing solution. The bacteria was suspended in F buffer (K2HPO4: 3.5 g/L, KH2PO4: 1 g/L, (NH4)2SO4: 1 g/L, trisodium citrate dehydrate: 0.25 g/L, MgSO4.7H2O: 0.1 g/L), and the suspension was added to 110 mL of an Exposure medium (Micro F buffer containing Biotin: 8 μg/mL, histidine: 0.2 μg/mL, glucose: 8 mg/mL). The TA100 strain was added to 120 mL of the Exposure medium per 3.16 mL of the bacterial solution to prepare a test bacterial solution. […] Since a well containing a bacterium which has obtained the proliferation ability by mutation of an amino acid (histidine) synthesizing enzyme gene turns from purple to yellow due to a pH change, the bacterium proliferation well which has turned to yellow in 48 wells per dose is counted, and was assessed by comparing with a negative control group. […]

Some results are limits rather than exact numbers.

T3 sequence (P33261 whole entry): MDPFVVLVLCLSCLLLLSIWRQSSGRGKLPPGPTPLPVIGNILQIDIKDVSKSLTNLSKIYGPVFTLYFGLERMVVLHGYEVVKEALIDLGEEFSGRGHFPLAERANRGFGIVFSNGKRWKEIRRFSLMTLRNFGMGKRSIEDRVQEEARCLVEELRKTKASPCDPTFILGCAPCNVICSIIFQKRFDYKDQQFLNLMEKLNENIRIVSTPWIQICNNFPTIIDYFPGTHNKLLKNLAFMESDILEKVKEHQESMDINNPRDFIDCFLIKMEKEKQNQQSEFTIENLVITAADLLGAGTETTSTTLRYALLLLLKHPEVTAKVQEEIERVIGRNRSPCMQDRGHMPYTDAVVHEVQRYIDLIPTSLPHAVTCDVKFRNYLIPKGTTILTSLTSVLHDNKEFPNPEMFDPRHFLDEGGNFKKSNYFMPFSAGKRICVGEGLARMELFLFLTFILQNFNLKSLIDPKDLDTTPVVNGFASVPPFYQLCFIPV
T5 sequence (P10635 whole entry): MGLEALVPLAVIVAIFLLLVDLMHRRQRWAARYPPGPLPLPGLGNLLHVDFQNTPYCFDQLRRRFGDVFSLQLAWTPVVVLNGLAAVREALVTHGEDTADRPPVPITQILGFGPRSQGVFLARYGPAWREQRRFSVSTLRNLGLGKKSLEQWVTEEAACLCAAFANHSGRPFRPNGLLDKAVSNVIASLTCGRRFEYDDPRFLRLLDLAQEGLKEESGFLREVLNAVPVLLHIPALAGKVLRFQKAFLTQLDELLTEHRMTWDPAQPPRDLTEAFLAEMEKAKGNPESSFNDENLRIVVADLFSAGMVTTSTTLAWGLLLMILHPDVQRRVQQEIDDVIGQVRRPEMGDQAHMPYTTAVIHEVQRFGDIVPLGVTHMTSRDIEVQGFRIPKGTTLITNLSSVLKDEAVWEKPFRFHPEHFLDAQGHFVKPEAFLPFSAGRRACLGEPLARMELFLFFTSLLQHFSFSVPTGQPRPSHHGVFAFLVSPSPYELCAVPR

`Cc1c2c(c(C)c(C(OC(C)(C)C)C(=O)O)c1-c1ccc3c(c1)CCCO3)NC(=O)N(Cc1ccccc1)C2` (stereo not shown) [Compound 7] registered an EC50 in the series with HIV (HTLV-III B strain) of 0.0096 µM. The “inhibition ratio (hERG, IKr tail peak current)” value in series [1] was found to be 2.6%.

Take `Cc1c(-c2c(C)c3c(c(C)c2[C@H](OC(C)(C)C)C(=O)O)NS(=O)(=O)Cc2ccccc2-3)ccc2c1CCCO2` [Compound 10]: the IC50 at CYP1A2, on CYP2C19, at CYP3A4 and against CYP2D6 was at least 20 µM throughout. For the same molecule, in series [2], the “remaining amount of compound in liver microsomes of rat” value is given as 91%. The molecule further returned an EC50 in the series with HIV (HTLV-III B strain) of 0.0024 µM. In addition, the “solubility in the artificial intestinal juice” value in [3] is at least 50 µM. For the same molecule, the mutagenicity entry in series [4] is reported as “negative”.
